Here are results for two compounds from US20100068793A1, “DEVICES AND METHODS FOR PRODUCTION OF CELL AGGREGATES” (priority 2007, published 2010).

For series [1], the system named is hESC. The series can be described thus: Forced aggregation of hESC with or without ROCK inhibitor Y-27632. In kind it is cell-based, human. As to the method:
d) form aggregates in the presence of 10 μM Y27632 5. Suspend cells in X-vivo10 or other medium of interest at a concentration appropriate to the desired EB size and plate format (e.g. to form aggregates from 10,000 cells in 100 μL medium each in 96-well plates, suspend 1 million cells in 10 mL; for aggregates from 2,000 cells in 25 μL medium each in 384-well plates, suspend 0.8 million cells in 10 mL. NB multichannel pipettes or automated liquid handling systems often require a minimum “dead volume”, thus it may be necessary to make 10-20% additional volume of suspension depending on the specifics of the equipment employed. 6. Dispense the cell suspension into the well plates prepared in step 2. 7. Centrifuge for 5 minutes at 240×g 8. Incubate overnight at 37 degrees, 5% CO2 in a standard tissue culture incubator. 9. Recover EBs by pipetting using large-bore or cut-off pipette tips or by inverted centrifugation in the device described and illustrated in FIG. 1 or 2 for 1 minute at 20×g hESC were cultured on Matrigel in conditioned medium or with 48 hours of pre-differentiation in serum-containing medium, and were subjected to the forced aggregation protocol at 2,000 cells per well with or without addition of 10 μM of the ROCK inhibitor Y-27632. […] In the absence of both, no aggregates were formed (N.D.—size not determined). […]

Series [2] has as its system hESC. In words: Aggregate formation from hESC cultured on Matrigel after BMP pre-differentiation. The series is classed as cell-based, human. Conditions: 50 ng/mL BMP4 pre-differentiation, control without BMP4 formed no aggregates.
Description: Prepare a single-cell suspension by treating the hESC culture with TrypIE for 5 minutes, and washing the cells off with X-Vivo10
Count cells, spin down and re-suspend to 1 million cells/mL in X-Vivo or other medium of interest. Cells may all derive from a single culture, or cells from different sources may be combined.

“Also recorded” adds a separate entry of the source.

With `C[C@@H](N)[C@H]1CC[C@H](C(=O)Nc2ccncc2)CC1` [Y-27632], in the series with hESC [1] (10 μM Y-27632, hESC cultured on Matrigel, 2,000 cells per well, with or without 48 hours pre-differentiation in serum-containing medium), the “aggregate size and symmetry” value is “size and symmetry of aggregates are improved; also recorded: substantially increased aggregate size and symmetry”. For the same compound, the “aggregate formation / stability (SISO-aggregates, cross-sectional area)” value in the series on hESC [1] (10 μM Y-27632 added to cell suspension immediately prior to dispensing, hESC on Matrigel in MEF-conditioned medium, with or without 48 hours predifferentiation in 20% serum) was “sizeable aggregates resulted”.
Regarding “BMP4: bone morphogenetic protein growth factor used for pre-differentiation”, the “stable aggregate formation after BMP4 pre-differentiation” value with hESC [2] was “Aggregates formed from the pre-differentiated population”.
